Experimental data from paper PMC3648619 (Journal of inorganic biochemistry, 2013).

Target: T1, 20S proteasome, β5 subunit (chymotrypsin-like activity) (Homo sapiens, UniProt P28074)
T1 sequence (P28074 60-263): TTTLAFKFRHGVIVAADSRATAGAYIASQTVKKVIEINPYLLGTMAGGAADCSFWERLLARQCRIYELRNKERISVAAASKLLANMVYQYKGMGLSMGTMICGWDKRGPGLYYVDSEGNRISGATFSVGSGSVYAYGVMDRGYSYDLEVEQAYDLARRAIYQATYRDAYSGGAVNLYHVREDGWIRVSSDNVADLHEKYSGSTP
Format: biochemical

[Cd2(C12H12O2N)4(H2O)2]·2H2O [Cd1] gave an IC50 of 2.6 µM.
In the case of [Cd(C7H4N2O2)(C8H6O2)2]·2H2O [Cd3], the IC50 is reported as 3.3 µM.
Substance [Cd2(C11H10O2N)4(H2O)2]·2H2O has an IC50 of 3 µM.
